Measured values as given in US9175260B2, “Early mesoderm cells, a stable population of mesendoderm cells that has utility for generation of endoderm and mesoderm lineages and multipotent migratory cells (MMC)” (TheUniversity of Georgia Research Foundation, Inc., priority 2007, dated 2015).

Experiments:
Assay type in all cases: cell-based, human
hESCs (BG01) [1] = assay: Mesendoderm generation from hESCs with BIO in defined media (Q-PCR, immunostaining); conditions: BIO 2 μM
Method: hESCs (BG01) were plated as per the conditions specified in Example 1 in defined media. After ˜16-24 hours, BIO (2 μM) was added to cultures.

hESCs (BG02) = assay: BIO added to hESCs grown in MEF-CM (immunostaining)
Method: hESCs (BG02) grown in MEF-CM on Matrigel coated plates, were passaged in MEF-CM plus BIO (2 μM) over 4 days.

hESCs (BG01) [2] = assay: Mesendoderm generation from hESCs with Wnt3a in defined media (Q-PCR, immunostaining); conditions: Wnt3a 25 ng/ml
Method: hESCs (BG01) were plated as per the conditions specified in Example 1 in defined media. After ˜16-24 hours, human Wnt3a (25 ng/ml; R&D Systems) was added to cultures.

hESC (BG02) = assay: Generation of definitive endoderm: BIO and SB431542 followed by high Activin A (Q-PCR); conditions: defined media minus IGF-I and Heregulin plus Activin A 100 ng/ml, 4 days, after 4 days BIO/SB431542
Method: hESC were taken and grown in defined media in the presence of BIO (2 μM) and SB431542 (20 μM) for 4 days. The cells were then split 1-4 into the same media or defined media minus IGF-I and heregulin and with additional Activin A (100 ng/ml) for an additional 4 days (FIG. 22). Samples (BG02) were taken every 2 days up to 8 days for Q-PCR analysis. […] This cell type persisted in the presence of BIO/SB431542.

[3] = test system: cells passaged in BIO/SB431542 (MMCs); assay: Differentiation of MMCs to endoderm with Activin A after removal of BIO/SB431542 (Q-PCR); conditions: 6 passages in BIO/SB431542, then Activin A to 100 ng/ml without IGF-I, heregulin; 4 day period
Text: We consider these cells to be pre-mesoderm and pre-endoderm but no longer hESCs. This raised the possibility that these cells retained a multipotent differentiation potential that could be manifested following removal of BIO/SB431542 and by addition of cell differentiation factors. To test the possibility that the cells in BIO/SB431542-containing media could be further differentiated into endoderm, we grew cells for 6 passages in BIO/SB431542, then removed BIO/SB431542, and IGF-I, heregulin (two activators of PI3K activity) from the media and supplemented with Activin A to 100 ng/ml. These are conditions that support differentiation of hESCs to definitive endoderm. Over a 4 day period following the switch to the endoderm differentiation conditions we observed increases in Sox17 and CXCR4 transcripts while Nanog, T and eomesodermin transcripts remained low (FIG. 32). […] We propose that the BIO/SB431542 treated cells could also be differentiated into mesoderm and perhaps other lineages (ectoderm) if exposed to the appropriate specification factors. For example, we believe that BIO/SB431542-treated cells could be converted to mesoderm cells if BIO/SB431542 was removed and BMP4 was added to the media.

[4] = involving an epithelial to mesenchymal transition
[5] = BIO 2 μM, 4 days, cells passaged with trypsin
[6] = BIO, cells passaged with collagenase

In the case of O=C1Nc2cc(Br)ccc2/C1=C1/Nc2ccccc2/C1=N\O [BIO, (2′Z,3′E)-6-Bromoindirubin-3′-oxime], the “Snail localisation (immunostaining)” value (hESCs (BG01) [1]; 48 hours) is reported as “accumulates in the nucleus”, the “T/brachyury levels (immunostaining)” value (hESCs (BG01) [1]; 48 hours) is reported as “increased” and the “E-cadherin and Nanog (immunostaining)” value (hESCs (BG01) [1]; after 48 hours) is reported as “downregulated”. For the same molecule, the “Nanog transcripts (Q-PCR)” value (hESCs (BG01) [1]; defined media) was “decreased by 48 hours”, the “T and MixL1 mRNA levels (Q-PCR)” value (hESCs (BG01) [1]; defined media) was “increased over the first 24 hours then decreased thereon” and the differentiation outcome (hESCs (BG01) [1]; [4]) was “caused hESCs to differentiate to mesendoderm”. The differentiation outcome (hESCs (BG02); BIO 2 μM) was “promotes an epithelial to mesenchymal transition and differentiation to mesendoderm”, the “Oct4 and E-cadherin (immunostaining)” value (hESCs (BG02); [5]) was “downregulation” and the “T/Brachyury (immunostaining)” value (hESCs (BG02); [5]) was “upregulation”. For the same molecule, the “Nanog and E-cadherin (immunostaining)” value (hESCs (BG02); [6]) was “downregulation” and the “T/Brachyury (immunostaining)” value (hESCs (BG02); [6]) was “upregulation”.

B1: Wnt3a: canonical Wnt signaling molecule; human Wnt3a (R&D Systems) (protein, UniProt P56704 19-352, looked up)
Protein Wnt-3a: SYPIWWSLAVGPQYSSLGSQPILCASIPGLVPKQLRFCRNYVEIMPSVAEGIKIGIQECQHQFRGRRWNCTTVHDSLAIFGPVLDKATRESAFVHAIASAGVAFAVTRSCAEGTAAICGCSSRHQGSPGKGWKWGGCSEDIEFGGMVSREFADARENRPDARSAMNRHNNEAGRQAIASHMHLKCKCHGLSGSCEVKTCWWSQPDFRAIGDFLKDKYDSASEMVVEKHRESRGWVETLRPRYTYFKVPTERDLVYYEASPNFCEPNPETGSFGTRDRTCNVSSHGIDGCDLLCCGRGHNARAERRREKCRCVFHWCCYVSCQECTRVYDVHTCK
With B1 the “T/brachyury levels (immunostaining)” value (hESCs (BG01) [2]; 48 hours) was “increased”, the “β-catenin and Snail localisation (immunostaining)” value (hESCs (BG01) [2]; 48 hours) was “accumulate in the nucleus” and the “E-cadherin and Nanog (immunostaining)” value (hESCs (BG01) [2]; after 48 hours) was “downregulated”. The “Nanog transcripts (Q-PCR)” value (hESCs (BG01) [2]; defined media) was “decreased by 48 hours”, the “T, Eomes and MixL1 mRNA levels (Q-PCR)” value (hESCs (BG01) [2]; defined media) was “increased over 1-2 days, then decreased by day 5” and the differentiation outcome (hESCs (BG01) [2]; [4]) was “caused hESCs to differentiate to mesendoderm”.

B2: Activin A: growth factor (R&D Systems), used at high levels (100 ng/ml) to produce definitive endoderm (protein, UniProt P08476 311-426, looked up)
Inhibin beta A chain: GLECDGKVNICCKKQFFVSFKDIGWNDWIIAPSGYHANYCEGECPSHIAGTSGSSLSFHSTVINHYRMRGHSPFANLKSCCVPTKLRPMSMLYYDDGQNIIKKDIQNMIVEECGCS
With B2 the “differentiation after switch to Activin A (Q-PCR: Sox17, CXCR4 upregulated, FoxF1 absent)” value (hESC (BG02)) was “further differentiated into DE”, the “Nanog, T and eomesodermin transcripts (Q-PCR)” value [3] was “remained low” and the “Sox17 and CXCR4 transcripts (Q-PCR)” value [3] was “increases”.
